{"source": "patent US20130210809A1", "about": "“NOVEL 2-AMINO-4-PYRAZOLYL-THIAZOLE DERIVATIVES AND THEIR USE AS ALLOSTERIC MODULATORS OF METABOTROPIC GLUTAMATE RECEPTORS” (priority 2010, published 2013)", "data": [{"biological_target": "T1, recombinant human mGluR4a receptors (Homo sapiens, UniProt Q14833)", "T1 construct": "expressed in transfected cells", "T1 sequence (Q14833 33-912)": "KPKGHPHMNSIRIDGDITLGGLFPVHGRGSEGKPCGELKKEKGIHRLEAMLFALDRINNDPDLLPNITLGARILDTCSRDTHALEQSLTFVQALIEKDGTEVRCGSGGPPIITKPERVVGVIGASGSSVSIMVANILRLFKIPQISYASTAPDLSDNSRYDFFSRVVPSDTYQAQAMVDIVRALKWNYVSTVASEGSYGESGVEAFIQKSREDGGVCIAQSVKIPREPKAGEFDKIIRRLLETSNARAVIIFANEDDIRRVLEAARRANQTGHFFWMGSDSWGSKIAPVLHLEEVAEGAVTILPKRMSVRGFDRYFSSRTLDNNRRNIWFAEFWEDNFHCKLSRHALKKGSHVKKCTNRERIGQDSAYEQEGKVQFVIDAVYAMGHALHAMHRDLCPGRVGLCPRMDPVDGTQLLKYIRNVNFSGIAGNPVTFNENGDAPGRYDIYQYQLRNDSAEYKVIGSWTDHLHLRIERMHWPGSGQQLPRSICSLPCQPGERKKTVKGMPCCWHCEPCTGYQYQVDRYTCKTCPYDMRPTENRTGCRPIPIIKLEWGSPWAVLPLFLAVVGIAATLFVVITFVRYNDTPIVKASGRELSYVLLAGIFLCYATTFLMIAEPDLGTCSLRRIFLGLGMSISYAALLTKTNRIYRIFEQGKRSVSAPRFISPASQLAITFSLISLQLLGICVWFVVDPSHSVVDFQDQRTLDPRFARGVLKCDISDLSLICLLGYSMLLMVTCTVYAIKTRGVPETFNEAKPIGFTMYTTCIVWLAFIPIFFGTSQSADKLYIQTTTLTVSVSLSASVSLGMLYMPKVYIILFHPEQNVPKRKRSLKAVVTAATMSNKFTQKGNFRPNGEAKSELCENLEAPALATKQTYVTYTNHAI", "experiment": "mGluR4 assay on HEK-expressing human mGluR4 (fluorescent cell based Ca2+ mobilization assay, FLIPR)", "conditions": "HEK-293 cells expressing hmGluR4; enhancement of EC25 glutamate response; mean of at least three independent experiments in duplicate; read-out: Ca^2+ Flux (mean EC50)", "text": "mGluR4 Assay on HEK-Expressing Human mGluR4\nThe compounds of the present invention are positive allosteric modulators of mGluR4 receptor. Their activity was examined on recombinant human mGluR4a receptors by detecting changes in intracellular Ca^2+ concentration, using the fluorescent Ca^2+-sensitive dye Fluo4-(AM) and a Fluorometric Imaging Plate Reader (FLIPR, Molecular Devices, Sunnyvale, Calif.).\nThe cDNA encoding the human metabotropic glutamate receptor (hmGluR4), (accession number NM_000841.1, NCBI Nucleotide database browser), was subcloned into an expression vector containing also the Hygromycin resistance gene. In parallel, the cDNA encoding a G protein allowing redirection of the activation signal to intracellular calcium flux was subcloned into a different expression vector containing also the Puromycin resistance gene. Transfection of both these vectors into HEK293 cells with PolyFect reagent (Qiagen) according to supplier's protocol, and hygromycin and puromycin treatment allowed selection of antibiotic resistant cells which had integrated stably one or more copies of the plasmids. Positive cellular clones expressing hmGluR4 were identified in a functional assay measuring changes in calcium flux in response to glutamate or selective known mGluR4 orthosteric agonists and antagonists. HEK-293 cells expressing hmGluR4 were maintained in media containing DMEM, dialyzed Fetal Calf Serum (10%), Glutamax™ (2 mM), Penicillin (100 units/mL), Streptomycin (100 μg/mL), Geneticin (100 μg/mL) and Hygromycin-B (40 μg/mL) and Puromycin (1 μg/mL) at 37° C./5% CO2.\nHuman mGluR4 HEK-293 cells were plated out 24 hours prior to FLIPR^384 assay in black-walled, clear-bottomed, poly-L-ornithine-coated 384-well plates at a density of 25,000 cells/well in a glutamine/glutamate free DMEM medium containing foetal bovine serum (10%), penicillin (100 units/mL) and streptomycin (100 μg/mL) at 37° C./5% CO2.\nOn the day of the assay, the medium was aspirated and the cells were loaded with a 3 μM solution of Fluo4-AM (LuBioScience, Lucerne, Switzerland) in 0.03% pluronic acid. After 1 hour at 37° C./5% CO2, the non incorporated dye was removed by washing cell plate with the assay buffer and the cells were left in the dark at it for six hours before testing. All assays were performed in a pH 7.4 buffered-solution containing 20 mM HEPES, 143 mM NaCl, 6 mM KCl, 1 mM MgSO4, 1 mM CaCl2, 0.125 mM sulfapyrazone and 0.1% glucose.\nAfter 10 s of basal fluorescence recording, various concentrations of the compounds of the invention were added to the cells. Changes in fluorescence levels were first monitored for 180 s in order to detect any agonist activity of the compounds. Then the cells were stimulated by an EC25 glutamate concentration for an additional 110 s in order to measure enhancing activities of the compounds of the invention. EC25 glutamate concentration is the concentration giving 25% of the maximal glutamate response.\nThe concentration-response curves of representative compounds of the present invention were generated using the Prism GraphPad software (Graph Pad Inc, San Diego, USA). The curves were fitted to a four-parameter logistic equation:\n(Y=Bottom+(Top−Bottom)/(1+10̂((Log EC50-X)*Hill Slope)\nallowing the determination of EC50 values.\nThe Table 3 below represents the mean EC50 obtained from at least three independent experiments of selected molecules performed in duplicate.", "units": {"EC50": "µM"}, "values": [{"molecule": "3-(3-(2-(Pyrimidin-2-ylamino)thiazol-4-yl)-1H-pyrazol-4-yl)benzonitrile [Compound 1-43]", "EC50": "< 0.1"}, {"molecule": "Cc1ccnc(Nc2nc(-c3c[nH]nc3C(F)F)cs2)n1", "note": "[Compound 1-1, 4-(3-(Difluoromethyl)-1H-pyrazol-4-yl)-N-(4-methylpyrimidin-2-yl)thiazol-2-amine]", "EC50": "< 0.1"}, {"molecule": "Cc1ccnc(Nc2nc(-c3c[nH]nc3-c3cccc(N4CCS(=O)(=O)CC4)c3)cs2)n1", "note": "[Compound 1-2, N-(4-Methylpyrimidin-2-yl)-4-(3-(3-(1,1-dioxido-4-thiomorpholinyl)phenyl)-1H-pyrazol-4-yl)thiazol-2-amine]", "EC50": "1 to 10"}, {"molecule": "Cc1ccnc(Nc2nc(-c3c[nH]nc3-c3ccccc3F)cs2)n1", "note": "[Compound 1-3, 4-(3-(2-Fluorophenyl)-1H-pyrazol-4-yl)-N-(4-methylpyrimidin-2-yl)thiazol-2-amine]", "EC50": "< 0.1"}, {"molecule": "Cc1ccnc(Nc2nc(-c3c[nH]nc3-c3cccc(C#N)c3)cs2)n1", "note": "[Compound 1-4, 3-(4-(2-(4-Methylpyrimidin-2-ylamino)thiazol-4-yl)-1H-pyrazol-3-yl)benzonitrile]", "EC50": "< 0.1"}, {"molecule": "Cc1ccnc(Nc2nc(-c3c[nH]nc3-c3ccc(C(O)C(F)(F)F)cc3)cs2)n1", "note": "(centres unmarked) [Compound 1-6, 2,2,2-Trifluoro-1-(4-(4-(2-(4-methylpyrimidin-2-ylamino)thiazol-4-yl)-1H-pyrazol-3-yl)phenyl)ethanol]", "EC50": "1 to 10"}, {"molecule": "Cc1ccnc(Nc2nc(-c3c[nH]nc3-c3cccc4c3CNC4=O)cs2)n1", "note": "[Compound 1-7, 4-(4-(2-(4-Methylpyrimidin-2-ylamino)thiazol-4-yl)-1H-pyrazol-3-yl)isoindolin-1-one]", "EC50": "1 to 10"}, {"molecule": "Cc1ccnc(Nc2nc(-c3c[nH]nc3-c3cnn4c3CCC4)cs2)n1", "note": "[Compound 1-8, 4-(3-(5,6-Dihydro-4H-pyrrolo[1,2-b]pyrazol-3-yl)-1H-pyrazol-4-yl)-N-(4-methylpyrimidin-2-yl)thiazol-2-amine]", "EC50": "1 to 10"}, {"molecule": "Cc1ccnc(Nc2nc(-c3c[nH]nc3-c3cccc(CN4CCOCC4)c3)cs2)n1", "note": "[Compound 1-9, N-(4-Methylpyrimidin-2-yl)-4-(3-(3-(morpholinomethyl)phenyl)-1H-pyrazol-4-yl)thiazol-2-amine]", "EC50": "1 to 10"}, {"molecule": "Cc1ccnc(Nc2nc(-c3c[nH]nc3-c3cncc(Cl)c3)cs2)n1", "note": "[Compound 1-10, 4-(3-(5-Chloropyridin-3-yl)-1H-pyrazol-4-yl)-N-(4-methylpyrimidin-2-yl)thiazol-2-amine]", "EC50": "1 to 10"}, {"molecule": "COc1ccccc1-c1n[nH]cc1-c1csc(Nc2nccc(C)n2)n1", "note": "[Compound 1-11, 4-(3-(2-Methoxyphenyl)-1H-pyrazol-4-yl)-N-(4-methylpyrimidin-2-yl)thiazol-2-amine]", "EC50": "1 to 10"}, {"molecule": "Cc1cccc(-c2n[nH]cc2-c2csc(Nc3nccc(C)n3)n2)c1", "note": "[Compound 1-12, N-(4-Methylpyrimidin-2-yl)-4-(3-m-tolyl-1H-pyrazol-4-yl)thiazol-2-amine]", "EC50": "1 to 10"}, {"molecule": "c1ccc(Nc2nc(-c3c[nH]nc3N3CCOCC3)cs2)nc1", "note": "[Compound 1-13, 4-(3-Morpholino-1H-pyrazol-4-yl)-N-(pyridin-2-yl)thiazol-2-amine]", "EC50": "1 to 10"}, {"molecule": "Cc1ccnc(Nc2nc(-c3c[nH]nc3-c3cncc(C(C)(C)O)c3)cs2)n1", "note": "[Compound 1-14, 2-(5-(4-(2-(4-Methylpyrimidin-2-ylamino)thiazol-4-yl)-1H-pyrazol-3-yl)pyridin-3-yl)propan-2-ol]", "EC50": "1 to 10"}, {"molecule": "Cc1ccnc(Nc2nc(-c3c[nH]nc3-c3cccc(CCCO)c3)cs2)n1", "note": "[Compound 1-15, 3-(3-(4-(2-(4-Methylpyrimidin-2-ylamino)thiazol-4-yl)-1H-pyrazol-3-yl)phenyl)propan-1-ol]", "EC50": "0.1 to 1"}, {"molecule": "Cc1ccnc(Nc2nc(-c3c[nH]nc3-c3ccc(Cl)cc3)cs2)n1", "note": "[Compound 1-16, 4-(3-(4-Chlorophenyl)-1H-pyrazol-4-yl)-N-(4-methylpyrimidin-2-yl)thiazol-2-amine]", "EC50": "0.1 to 1"}, {"molecule": "Cc1ccnc(Nc2nc(-c3c[nH]nc3-c3ccc(C4CC4)cc3)cs2)n1", "note": "[Compound 1-17, 4-(3-(4-Cyclopropylphenyl)-1H-pyrazol-4-yl)-N-(4-methylpyrimidin-2-yl)thiazol-2-amine]", "EC50": "1 to 10"}, {"molecule": "Cc1ccnc(Nc2nc(-c3c[nH]nc3-c3ccncc3)cs2)n1", "note": "[Compound 1-18, N-(4-Methylpyrimidin-2-yl)-4-(3-(pyridin-4-yl)-1H-pyrazol-4-yl)thiazol-2-amine]", "EC50": "1 to 10"}, {"molecule": "Cc1ccnc(Nc2nc(-c3c[nH]nc3-c3ccccc3C)cs2)n1", "note": "[Compound 1-19, N-(4-Methylpyrimidin-2-yl)-4-(3-o-tolyl-1H-pyrazol-4-yl)thiazol-2-amine]", "EC50": "1 to 10"}, {"molecule": "Cc1ccnc(Nc2nc(-c3c[nH]nc3-c3ccccc3OC(F)(F)F)cs2)n1", "note": "[Compound 1-20, N-(4-Methylpyrimidin-2-yl)-4-(3-(2-(trifluoromethoxy)phenyl)-1H-pyrazol-4-yl)thiazol-2-amine]", "EC50": "1 to 10"}, {"molecule": "Cc1ccnc(Nc2nc(-c3c[nH]nc3-c3ccccc3Cl)cs2)n1", "note": "[Compound 1-21, 4-(3-(2-Chlorophenyl)-1H-pyrazol-4-yl)-N-(4-methylpyrimidin-2-yl)thiazol-2-amine]", "EC50": "0.1 to 1"}, {"molecule": "Cc1ccnc(Nc2nc(-c3c[nH]nc3-c3cccc(C(N)=O)c3)cs2)n1", "note": "[Compound 1-22, 3-(4-(2-(4-Methylpyrimidin-2-ylamino)thiazol-4-yl)-1H-pyrazol-3-yl)benzamide]", "EC50": "1 to 10"}, {"molecule": "CCOc1ccccc1-c1n[nH]cc1-c1csc(Nc2nccc(C)n2)n1", "note": "[Compound 1-23, 4-(3-(2-Ethoxyphenyl)-1H-pyrazol-4-yl)-N-(4-methylpyrimidin-2-yl)thiazol-2-amine]", "EC50": "1 to 10"}, {"molecule": "Cc1ccnc(Nc2nc(-c3c[nH]nc3-c3ccc(F)cc3F)cs2)n1", "note": "[Compound 1-24, 4-(3-(2,4-Difluorophenyl)-1H-pyrazol-4-yl)-N-(4-methylpyrimidin-2-yl)thiazol-2-amine]", "EC50": "1 to 10"}, {"molecule": "Cc1ccnc(Nc2nc(-c3cn[nH]c3COC3CCC3)cs2)n1", "note": "[Compound 1-28, 4-(5-(Cyclobutoxymethyl)-1H-pyrazol-4-yl)-N-(4-methylpyrimidin-2-yl)thiazol-2-amine]", "EC50": "0.1 to 1"}, {"molecule": "COC(C)c1[nH]ncc1-c1csc(Nc2nccc(C)n2)n1", "note": "(centres unmarked) [Compound 1-29, 4-(5-(1-Methoxyethyl)-1H-pyrazol-4-yl)-N-(4-methylpyrimidin-2-yl)thiazol-2-amine]", "EC50": "0.1 to 1"}, {"molecule": "COc1ccc(F)cc1-c1n[nH]cc1-c1csc(Nc2ncccn2)n1", "note": "[Compound 1-31, 4-(3-(5-Fluoro-2-methoxyphenyl)-1H-pyrazol-4-yl)-N-(pyrimidin-2-yl)thiazol-2-amine]", "EC50": "< 0.1"}, {"molecule": "CNC(=O)c1[nH]ncc1-c1csc(Nc2nccc(C)n2)n1", "note": "[Compound 1-32, N-Methyl-4-(2-(4-methylpyrimidin-2-ylamino)thiazol-4-yl)-1H-pyrazole-5-carboxamide]", "EC50": "1 to 10"}, {"molecule": "CC(=O)N1CCC=C(c2n[nH]cc2-c2csc(Nc3nccc(C)n3)n2)C1", "note": "[Compound 1-33, 1-(3-(4-(2-(4-Methylpyrimidin-2-ylamino)thiazol-4-yl)-1H-pyrazol-3-yl)-5,6-dihydropyridin-1(2H)-yl)ethanone]", "EC50": "1 to 10"}, {"molecule": "Cc1ccnc(Nc2nc(-c3cn[nH]c3-c3cc(C#N)ccc3F)cs2)n1", "note": "[Compound 1-34, 4-Fluoro-3-(4-(2-(4-methylpyrimidin-2-ylamino)thiazol-4-yl)-1H-pyrazol-5-yl)benzonitrile]", "EC50": "0.1 to 1"}, {"molecule": "Cc1ccnc(Nc2nc(-c3cn[nH]c3-c3cccc(C#N)c3F)cs2)n1", "note": "[Compound 1-35, 2-Fluoro-3-(4-(2-(4-methylpyrimidin-2-ylamino)thiazol-4-yl)-1H-pyrazol-5-yl)benzonitrile]", "EC50": "< 0.1"}, {"molecule": "COCc1n[nH]cc1-c1csc(Nc2ncc(F)cn2)n1", "note": "[Compound 1-37, N-(5-Fluoropyrimidin-2-yl)-4-(3-(methoxymethyl)-1H-pyrazol-4-yl)thiazol-2-amine]", "EC50": "1 to 10"}]}]}
